These results are taken from ChEMBL document CHEMBL1201862, “PubChem BioAssay data set” (2004).

Holding throughout (assay): NCI-60 cell line screen, 48 h
The subject of assay [1] is ACHN.
Assay [2] has as its system CAKI-1.
Assay [3] has as its system HCC 2998.
The subject of assay [4] is HOP-62.
In assay [5] the test system is Hs-578T.
In assay [6] the test system is IGROV-1.
Assay [7] has as its system K562.
Assay [8] concerns M14.
Assay [9] has as its system MDA-MB-231.
The test system of assay [10] is MDA-MB-435.
The subject of assay [11] is Malme-3M.
The test system of assay [12] is NCI-H460.
In assay [13] the test system is OVCAR-5.
The subject of assay [14] is PC-3.
Assay [15] has as its system RXF 393.
Assay [16] has as its system U-251.
Assay [17] relates to UACC-62.
Assay [18] has as its system COLO 205.
The subject of assay [19] is SF-539.

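Five concentrations, 48 hours, 96-well plates. GI50: concentration for 50% inhibition of growth.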 Active and inactive are the calls of the source. Rule as the data show it: active = GI50 up to about 1.1 µM and inactive = higher.

For `c1ccc2sc(SCCSc3nc4ccccc4s3)nc2c1`, the GI50 in [1] was > 100 µM (inactive); in [2] it was > 100 µM (inactive); in assay [3], 20.3 µM (inactive); in assay [4] it was > 100 µM (inactive); in [5], > 100 µM (inactive); in assay [6], > 100 µM (inactive). The GI50 in assay [7], in assay [8], in [9], in assay [10], in assay [11] and in [12] was > 100 µM (inactive) each time. Moreover, the GI50 in assay [13], in assay [14], in [15], in assay [16] and in [17] was > 100 µM (inactive) throughout.
Consider `OC(CCN1CCN(CCOC(c2ccc(F)cc2)c2ccc(F)cc2)CC1)c1ccc(Br)cc1` (stereo unspecified), for which the GI50 was 4.76 µM (inactive) in [1]; 2.02 µM (inactive) in [2]; 1.85 µM (inactive) in assay [18]; 1.97 µM (inactive) in assay [3]; 6.12 µM (inactive) in [4]; 4.89 µM (inactive) in assay [5]. Besides, the GI50 in [6] is 4.57 µM (inactive); in assay [7], 2.45 µM (inactive); in [8], 1.96 µM (inactive); in assay [9] it was 5.74 µM (inactive); in assay [10] it was 2.27 µM (inactive); in assay [11], 2.12 µM (inactive). For the same compound, the GI50 in assay [12] is 2.42 µM (inactive); in assay [13] it was 15.5 µM (inactive); in assay [14], 4.83 µM (inactive); in [15] it was 3.94 µM (inactive); in assay [19], 2.3 µM (inactive); in [16], 4.11 µM (inactive). Further, the GI50 in assay [17] is 4.06 µM (inactive).
With `O=[N+]([O-])C(/C=C(\Cl)n1nnc2ccccc21)=C(/Cl)n1nnc2ccccc21`, the GI50 in assay [1], in assay [2], in assay [18], in [3], in assay [4] and in [5] was > 100 µM (inactive) in each case. For the same compound, the GI50 in assay [6], in [7], in assay [8], in [9], in assay [10] and in assay [11] was > 100 µM (inactive) in each case. Further, the GI50 in assay [12], in assay [13], in assay [14], in assay [15], in [19] and in assay [16] was > 100 µM (inactive) in each case. The GI50 in assay [17] is > 100 µM (inactive).
Consider `Cc1cc(=O)oc2cc(OC(=O)N(CCCl)CCCl)ccc12`, for which the GI50 in assay [1], in assay [2], in assay [18], in [3], in assay [4] and in assay [5] was > 100 µM (inactive) each time. The GI50 is 94.4 µM (inactive) in assay [6]; 68.5 µM (inactive) in [7]; > 100 µM (inactive) in assay [8]; > 100 µM (inactive) in [9]; > 100 µM (inactive) in [10]; > 100 µM (inactive) in [11]. For the same compound, the GI50 was > 100 µM (inactive) in assay [12]; > 100 µM (inactive) in assay [13]; 46.8 µM (inactive) in [14]; > 100 µM (inactive) in [15]; > 100 µM (inactive) in [19]; > 100 µM (inactive) in assay [16]. Also, in assay [17], the GI50 is 29.4 µM (inactive).
Consider `Cc1ccc(C)c(COCCOCn2cc(Br)c(N)nc2=O)c1`, for which the GI50 in [1] is > 100 µM (inactive); in assay [2], > 100 µM (inactive); in assay [18] it was > 100 µM (inactive); in [3] it was > 100 µM (inactive); in assay [4], 57.3 µM (inactive); in assay [5], > 100 µM (inactive). For the same compound, the GI50 in assay [6], in assay [7], in assay [8], in assay [9], in [10] and in [11] was > 100 µM (inactive) in each case. Further, the GI50 in assay [12], in [13], in [14], in assay [15], in assay [19] and in [16] was > 100 µM (inactive) in each case. Further, the GI50 in [17] was > 100 µM (inactive).
`O=C(Nc1ccc(Cl)c(Cl)c1)C(=O)C(C1OC(=O)c2ccccc21)[N+](=O)[O-]` (stereo unspecified): the GI50 in assay [1], in [2], in [18], in [3], in [4] and in assay [5] was > 100 µM (inactive) each time. Further, the GI50 in assay [6], in [8], in [9], in [10], in [11] and in assay [12] was > 100 µM (inactive) throughout. The GI50 in assay [13] is > 100 µM (inactive); in assay [14], > 100 µM (inactive); in assay [15], 95.1 µM (inactive); in assay [19], > 100 µM (inactive); in [16], > 100 µM (inactive); in assay [17], > 100 µM (inactive).
For the compound `C#C[C@]1(O)CC[C@H]2[C@@H]3CCC4=C/C(=N/OC(=O)c5cccc6cc7ccccc7nc56)CC[C@@H]4[C@H]3CC[C@@]21CC`, the GI50 in assay [1] was > 100 µM (inactive); in assay [2], > 100 µM (inactive); in assay [18] it was 49.7 µM (inactive); in assay [3] it was > 100 µM (inactive); in [4], > 100 µM (inactive); in assay [5], > 100 µM (inactive). The GI50 in assay [6], in assay [7], in assay [8], in assay [9], in assay [10] and in assay [12] was > 100 µM (inactive) in each case. Besides, the GI50 in assay [13], in assay [14], in assay [15], in [19], in [16] and in [17] was > 100 µM (inactive) throughout.
`O=C(O)CSCC(=O)Nc1ccc2cccc3c2c1CC3`: the GI50 in assay [1], in [2], in [18], in assay [3], in assay [4] and in assay [5] was > 100 µM (inactive) each time. In addition, the GI50 in assay [6], in assay [7], in [8], in [9], in assay [10] and in [11] was > 100 µM (inactive) each time. Further, the GI50 in assay [13], in [14], in assay [15], in [19], in assay [16] and in [17] was > 100 µM (inactive) each time.
For `Cc1ccccc1NC(=O)/C(C#N)=N\Nc1[nH]cnc1C(N)=O`, the GI50 is 5.28 µM (inactive) in [1]; 2.59 µM (inactive) in assay [2]; 21.9 µM (inactive) in assay [18]; 2.92 µM (inactive) in [3]; 6.12 µM (inactive) in assay [4]; 24.3 µM (inactive) in assay [5]. Also, the GI50 is 4.88 µM (inactive) in [6]; 1.89 µM (inactive) in [7]; 2.66 µM (inactive) in assay [8]; 7.46 µM (inactive) in assay [9]; 4.68 µM (inactive) in [10]; 4.62 µM (inactive) in assay [11]. Besides, the GI50 in assay [12] was 9.33 µM (inactive); in assay [13], 40.3 µM (inactive); in [14], 4.44 µM (inactive); in assay [15] it was 15.3 µM (inactive); in [16], 37.1 µM (inactive); in assay [17], 12.9 µM (inactive).
As for `COc1ncc(C#CC(=O)c2ccccc2)c(OC)n1`, the GI50 was 1.77 µM (inactive) in assay [1]; 2.76 µM (inactive) in assay [2]; 1.99 µM (inactive) in [18]; 6.12 µM (inactive) in assay [3]; 19.3 µM (inactive) in assay [4]; 24.5 µM (inactive) in assay [5]. Moreover, the GI50 was 2.1 µM (inactive) in assay [6]; 0.726 µM (active) in assay [7]; 2.22 µM (inactive) in assay [8]; 1.95 µM (inactive) in assay [9]; 3.91 µM (inactive) in assay [10]; 1.67 µM (inactive) in assay [11]. Moreover, the GI50 is 13.4 µM (inactive) in assay [12]; 5.04 µM (inactive) in [13]; 1.89 µM (inactive) in assay [14]; 1.85 µM (inactive) in assay [15]; 4.71 µM (inactive) in assay [16]; 4.03 µM (inactive) in assay [17].
In the case of `O=C(c1ccc(Cl)c(Cl)c1)N(Cc1cccnc1)C(=S)N(Cc1cccnc1)C(=O)c1ccc(Cl)c(Cl)c1`, the GI50 in assay [1] is 18.8 µM (inactive); in [2], 31.6 µM (inactive); in [18], 15.6 µM (inactive); in [3], 20.5 µM (inactive); in [4], 27.4 µM (inactive); in assay [5], 40.6 µM (inactive). The GI50 is 30.3 µM (inactive) in assay [7]; 21.2 µM (inactive) in assay [8]; 33.1 µM (inactive) in assay [9]; 62.5 µM (inactive) in assay [10]; 52.8 µM (inactive) in assay [11]; 44.7 µM (inactive) in assay [12]. Besides, the GI50 in [13] was 29.2 µM (inactive); in assay [14], 22.1 µM (inactive); in assay [15], 28.4 µM (inactive); in assay [19], 22.1 µM (inactive); in assay [16] it was 29.3 µM (inactive); in assay [17], 50.7 µM (inactive).
